Test system: NOMO1
Assay: cell viability relative to DMSO control; higher = less cytotoxic
Settings: 48 h
In short: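 Viability was expressed as a per-plate percentage of DMSO wells, with cell-free wells as background. Leukemia cells (NOMO1 or SEM at 500 cells/well, P12-Ichikawa at 1000 cells/well) were adapted for at least four passages in each medium and seeded in 1536-well plates (5 μl). Library compounds in DMSO were pin-dosed over an 11-point threefold series from 47 μM to 0.79 nM, and CellTiter-Glo One luminescence was read after 48 h at 37°C.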

[1] = HPLM + 10% dialyzed FBS, 0.000781 µM
[2] = HPLM + 10% dialyzed FBS, 0.00234 µM
[3] = HPLM + 10% dialyzed FBS, 0.00702 µM
[4] = HPLM + 10% dialyzed FBS, 0.0211 µM
[5] = HPLM + 10% dialyzed FBS, 0.0632 µM
[6] = HPLM + 10% dialyzed FBS, 0.19 µM
[7] = HPLM + 10% dialyzed FBS, 0.569 µM
[8] = HPLM + 10% dialyzed FBS, 1.71 µM
[9] = HPLM + 10% dialyzed FBS, 5.12 µM
[10] = HPLM + 10% dialyzed FBS, 15.4 µM
[11] = HPLM + 10% dialyzed FBS, 46.1 µM
[12] = RPMI 5 mM glucose + 10% FBS, 0.000781 µM
[13] = RPMI 5 mM glucose + 10% FBS, 0.00234 µM
[14] = RPMI 5 mM glucose + 10% FBS, 0.00702 µM
[15] = RPMI 5 mM glucose + 10% FBS, 0.0211 µM
[16] = RPMI 5 mM glucose + 10% FBS, 0.0632 µM
[17] = RPMI 5 mM glucose + 10% FBS, 0.19 µM
[18] = RPMI 5 mM glucose + 10% FBS, 0.569 µM
[19] = RPMI 5 mM glucose + 10% FBS, 1.71 µM
[20] = RPMI 5 mM glucose + 10% FBS, 5.12 µM
[21] = RPMI 5 mM glucose + 10% FBS, 15.4 µM
[22] = RPMI 5 mM glucose + 10% FBS, 46.1 µM
[23] = RPMI 5 mM glucose + 10% dialyzed FBS, 0.000781 µM
[24] = RPMI 5 mM glucose + 10% dialyzed FBS, 0.00234 µM
[25] = RPMI 5 mM glucose + 10% dialyzed FBS, 0.00702 µM
[26] = RPMI 5 mM glucose + 10% dialyzed FBS, 0.0211 µM
[27] = RPMI 5 mM glucose + 10% dialyzed FBS, 0.0632 µM
[28] = RPMI 5 mM glucose + 10% dialyzed FBS, 0.19 µM
[29] = RPMI 5 mM glucose + 10% dialyzed FBS, 0.569 µM
[30] = RPMI 5 mM glucose + 10% dialyzed FBS, 1.71 µM
[31] = RPMI 5 mM glucose + 10% dialyzed FBS, 5.12 µM
[32] = RPMI 5 mM glucose + 10% dialyzed FBS, 15.4 µM
[33] = RPMI 5 mM glucose + 10% dialyzed FBS, 46.1 µM

Compound | cell viability [1] | cell viability [2] | cell viability [3] | cell viability [4] | cell viability [5] | cell viability [6] | cell viability [7] | cell viability [8] | cell viability [9] | cell viability [10] | cell viability [11] | cell viability [12] | cell viability [13] | cell viability [14] | cell viability [15] | cell viability [16] | cell viability [17] | cell viability [18] | cell viability [19] | cell viability [20] | cell viability [21] | cell viability [22] | cell viability [23] | cell viability [24] | cell viability [25] | cell viability [26] | cell viability [27] | cell viability [28] | cell viability [29] | cell viability [30] | cell viability [31] | cell viability [32] | cell viability [33]
CN(C)CC[C@H](CSc1ccccc1)Nc1ccc([S+](=O)([O-])NC(=O)c2ccc(N3CCN(Cc4ccccc4-c4ccc(Cl)cc4)CC3)cc2)cc1[N+](=O)[O-] | 140% | 119% | 125% | 108% | 127% | 92.5% | 96.7% | 102% | 52.7% | 50.2% | 55% | 108% | 118% | 109% | 107% | 99.5% | 98.8% | 89.5% | 80.7% | 50.8% | 49.6% | 60.6% | 115% | 123% | 102% | 114% | 98.3% | 85.3% | 62.7% | 46.1% | 33.9% | 30.6% | 42.5%
C=C[C@H]1CN2CCC1C[C@@H]2[C@@H](O)c1ccnc2ccccc12 (some centres not stated) | 97% | 109% | 105% | 93.7% | 99.7% | 107% | 92.7% | 97.1% | 86% | 93.1% | 74.9% | 90.3% | 90.6% | 94.1% | 85.4% | 91.4% | 91.1% | 84.9% | 86.1% | 89.9% | 83.8% | 85.2% | 101% | 114% | 96.7% | 99.3% | 92.6% | 96% | 85.2% | 99.1% | 84.1% | 85.4% | 76.8%
CN(CCOc1ccc(NS(C)(=O)=O)cc1)CCc1ccc(NS(C)(=O)=O)cc1 | 108% | 126% | 110% | 116% | 136% | 138% | 147% | 133% | 131% | 135% | 134% | 121% | 119% | 109% | 129% | 117% | 120% | 135% | 120% | 141% | 118% | 136% |  |  |  |  |  |  |  |  |  |  | 
CO[C@@H]1[C@@H](OC(N)=O)[C@@H](O)[C@H](OC2=CC=C3\C(=C(NC(=O)C4=CC=C([O-])C(=C4)CC=C(C)C)/C(=O)OC3=C2C)O)OC1(C)C | 110% | 111% | 122% | 114% | 109% | 120% | 101% | 91.9% | 93.2% | 87% | 31.8% | 91.4% | 101% | 96.6% | 98.1% | 111% | 102% | 116% | 110% | 101% | 86.6% | 26.2% | 114% | 118% | 116% | 118% | 113% | 97.5% | 117% | 120% | 88.5% | 83.9% | 35.9%
OCCNC1CCCc2c1[nH]c1ccc(-c3ccccc3)cc21 (configuration not stated) | 81.8% | 93.5% | 106% | 105% | 117% | 112% | 109% | 105% | 104% | 87.1% | 11.2% | 93.4% | 103% | 109% | 105% | 111% | 96.5% | 109% | 110% | 100% | 98.6% | 14.7% | 83.7% | 97.4% | 106% | 105% | 111% | 99.4% | 104% | 96.3% | 105% | 88.6% | 22.7%
NC(=O)c1ccc(-c2nc(-c3ccc4c(c3)OCO4)c(-c3ccccn3)[nH]2)cc1 | 114% | 135% | 118% | 134% | 118% | 132% | 119% | 123% | 121% | 120% | 124% | 121% | 112% | 127% | 113% | 126% | 111% | 124% | 109% | 108% | 125% | 112% | 117% | 108% | 117% | 114% | 116% | 110% | 119% | 116% | 109% | 113% | 105%
CCC(=O)OC1CCC2C3CCC/4=C/C(=O)CC[C@@]4(C)C3CC[C@]12C (some centres not stated) | 89.8% | 112% | 128% | 120% | 122% | 118% | 130% | 136% | 136% | 129% | 135% |  |  |  |  |  |  |  |  |  |  |  |  |  |  |  |  |  |  |  |  |  | 
COc1ccc(C(=O)CC(=O)c2ccc(C(C)(C)C)cc2)cc1 | 78.3% | 107% | 92.8% | 101% | 108% | 112% | 131% | 130% | 121% | 98.3% | 105% | 101% | 108% | 107% | 110% | 121% | 113% | 122% | 104% | 117% | 122% | 121% | 73% | 102% | 99.9% | 106% | 108% | 111% | 110% | 106% | 115% | 95.7% | 111%
O=C(C[C@@H]1C/C=C\CCC(=O)O[C@H](c2ccccc2)CNC1=O)NCc1ccc(Cl)cc1 | 112% | 125% | 117% | 125% | 111% | 138% | 133% | 114% | 121% | 118% | 114% | 87.2% | 106% | 120% | 109% | 104% | 115% | 114% | 102% | 109% | 98.5% | 110% | 92.2% | 114% | 99.3% | 111% | 113% | 117% | 120% | 125% | 105% | 111% | 99.5%
COc1cc(NC(=O)c2ccc(-c3ccc(Cl)cc3)o2)cc(OC)c1 | 95.5% | 103% | 112% | 112% | 114% | 118% | 112% | 104% | 61.8% | 52.7% | 39.6% | 91.4% | 106% | 104% | 100% | 101% | 110% | 108% | 92.1% | 58.7% | 74.4% | 72.3% | 97.5% | 111% | 108% | 108% | 111% | 115% | 109% | 94.9% | 66.8% | 50.7% | 62.8%

Reference: the supplement of paper PMC11451515
